PMC3284447, “In vivo antinociception of potent mu opioid agonist tetrapeptide analogues and comparison with a compact opioid agonist - neurokinin 1 receptor antagonist chimera” (Molecular Brain, 2012)
Entries after “also recorded” stand apart in the source; their conditions may differ. Like-named read-outs stand apart in the source and are kept apart here. Square brackets hold non-standard residues; d marks the D form. Dmt = Cc1cc(O)cc(C)c1C[C@H](N)C(=O)O; dNMeA = CN[C@H](C)C(=O)O; Sar = CNCC(=O)O

Tests used:
male C57Bl6 mice [1] = assay: hot water tail-flick test, tolerance after daily i.v. administration for 5 days; type: in vivo, mouse; conditions: for tolerance development after repetitive administration: daily for 5 days, i.v. (morphine i.p.), measured on day 5; for %MPE: ± SEM of 7-10 animals
Experimental: (§1) Nociceptive responses to thermally-induced pain were assessed by the hot water tail-flick test using male C57Bl6 mice. Animals (weighing 25-28 g) were maintained on a normal light-dark cycle and testing occurred during the light cycle. Mice were injected intravenously (i.v.) with the examined drug, dissolved in saline, at different doses. For the verification of drug-induced antinociceptive tolerance, the investigated compounds were administered (i.v.) once per day for 5 days (2 and 4 mg/kg for SBCHM01 and 4 mg/kg for both AN81 and BVD03) and the analgesic effect was measured on the first and the fifth day of the experiment. In each case (both acute and chronic treatment) the effect was measured over a minimum time period of 120 minutes. The antinociceptive effect was measured in triplicate at the following time points post-injection: 5, 15, 30, 60, 120 min (and 180 min for SBCHM01; due to the strong and long-lasting analgesic effect produced by AN81 (Figure 2C), there was no possibility to prolong the experiment, which - if prolonged - could in consequence cause major damage to the animal's tail, thus giving spurious nociceptive responses). Responses to thermal hot stimulus were assessed by the latency with which the mouse removed its tail from 55°C water. A cut-off time of 10 s was used in order to prevent tissue damage.
(§2) In order to compare the antinociceptive effect induced by the examined drugs, morphine was used as a standard reference.
(§3) Data are presented as means ± standard errors of the mean (SEM). All of the calculations and statistical analysis were performed using Prism 5.0 (Graph Pad Software, San Diego, CA, USA). The nociceptive scores were analyzed using a two-way Anova with Bonferroni's post hoc test. The p value (the value of probability) as well as inferential statistics - F test, which include information about the obtained magnitude or value of the test statistic and degrees of freedom, are represented.

male CD1 mice = assay: radiant heat tail-flick test after s.c. administration; type: in vivo, mouse
Experimental: as §2
In order to determine the duration of drug activity, s.c. drug administration into male CD1 mice (27-33 g; Charles River Laboratories, Sulzfeld, Germany) was performed. In addition to a thermal nociceptive stimulus, the alternative light beam-based tail-flick assay was performed using an UB 37360 Ugo Basile analgesiometer (Ugo Basile s.r.l., Varese, Italy). The reaction time required by the mouse to remove its tail due to the radiant heat was measured and defined as the tail-flick latency. A cut-off time of 10 s was used in order to minimize tissue damage. Tail-flick latencies were measured before (baseline) and after drug s.c. administration (30 min, 1 h, 2 h, 3 h, 4 h, 5 h, 6 h and 7 h), the antinociceptive effect was scored as a percentage of the maximal possible effect (% MPE), according to formula presented above. Drugs were dissolved in sterile physiological saline (0.9%) and were administered s.c. in a volume of 10 μl per 1 g body weight. The animal procedures were approved by the Austrian Ethical Committee on Animal Care and Use in line with international laws and policies.
as §3

male C57Bl6 mice [2] = assay: hot water tail-flick test, acute antinociception after i.v. administration; type: in vivo, mouse; conditions: for analgesic effect compared with morphine: morphine 4 mg/kg i.p.
Experimental: as §1, §2, §3

MOR [3] = tested on: MOR; parameters: method as in PMID 21413804; conditions: GPI tissue bioassay; means of 3-6 experiments ± SEM; cited from earlier work
DOR [4] = tested on: DOR; parameters: method as in PMID 21413804; conditions: MVD tissue bioassay; means of 3-6 experiments ± SEM; cited from earlier work
KOR = conditions: cited from earlier work
Excerpt: Table 1 In vitro functional activities and affinities of opioid- and opioid-NK1 ligands | column: KOR Ki (nM)^e, f

MOR [5] = target: MOR; parameters: method as in PMID 21413804; conditions: [^3H]DAMGO, rat brain membrane; cited from earlier work
DOR [6] = target: DOR; parameters: method as in PMID 21413804; conditions: [^3H]DSLET, rat brain membrane; cited from earlier work
MOR/DOR = conditions: cited from earlier work
Excerpt: (§4) The structure differs from BVD03 only in the amide nitrogen N-methyl group and side chain of the second residue in the peptide sequence (Figure 1). When an activity comparison is made between the two ...

[7] = cited from earlier work
Excerpt: as §4

MOR [8] = assay: forskolin-stimulated cAMP accumulation, MOR agonism; type: cell-based; conditions: BVD03 in comparison to BVD02, EC50 cAMP
MOR [9] = assay: MOR binding, displacement of [^3H]diprenorphine in HEK293 cells; conditions: BVD03 in comparison to BVD02, Ki
DOR [10] = assay: DOR binding, displacement of [^3H]diprenorphine in HEK293 cells; conditions: BVD03 in comparison to BVD02, Ki
MOR [11] = conditions: forskolin-stimulated cAMP accumulation, agonist; cited from earlier work
Excerpt: Table 1 In vitro functional activities and affinities of opioid- and opioid-NK1 ligands | column: MOR EC50 (nM)^c, d || The potent antinociceptive effects of the investigated structures after peripheral administration indicate that all four peptidic compounds are able to cross the BBB. […] The observed effects are in agreement with earlier in vitro binding data obtained for these peptides (BVD02 ...

DOR [12] = conditions: forskolin-stimulated cAMP accumulation, agonist; cited from earlier work
Excerpt: Table 1 In vitro functional activities and affinities of opioid- and opioid-NK1 ligands | column: DOR EC50 (nM)^c, d || The potent antinociceptive effects of the investigated structures after peripheral administration indicate that all four peptidic compounds are able to cross the BBB. […] The observed effects are in agreement with earlier in vitro binding data obtained for these peptides (BVD02 ...

MOR [13] = conditions: [^3H]diprenorphine, HEK293 cells stably expressing MOR; cited from earlier work
Excerpt: Table 1 In vitro functional activities and affinities of opioid- and opioid-NK1 ligands | column: MOR Ki (nM)^e, f || The potent antinociceptive effects of the investigated structures after peripheral administration indicate that all four peptidic compounds are able to cross the BBB. […] The observed effects are in agreement with earlier in vitro binding data obtained for these peptides (BVD02 ...

DOR [14] = conditions: [^3H]diprenorphine, HEK293 cells stably expressing DOR; cited from earlier work
Excerpt: Table 1 In vitro functional activities and affinities of opioid- and opioid-NK1 ligands | column: DOR Ki (nM)^e, f || The potent antinociceptive effects of the investigated structures after peripheral administration indicate that all four peptidic compounds are able to cross the BBB. […] The observed effects are in agreement with earlier in vitro binding data obtained for these peptides (BVD02 ...

[15] = i.v., 1 mg/kg, 30 min, ± SEM of 6-10 mice, p > 0.05 vs morphine
[16] = i.v., 0.5 mg/kg, 60 min, ± SEM of 6-10 mice, p > 0.05 vs morphine
[17] = [^3H]diprenorphine, HEK293 cells stably expressing KOR

## CN1CC[C@]23c4c5ccc(O)c4O[C@H]2[C@@H](O)C=C[C@H]3[C@H]1C5 [morphine, reference compound]
Male C57Bl6 mice [1]
  tolerance development after repetitive administration: mice had developed opioid-induced tolerance
Male C57Bl6 mice [1]; day 1, SBCHM01 2 mg/kg i.v., morphine 4 mg/kg i.p.
  potency at 180 min: decrease in potency is clearly visible
Male CD1 mice; morphine s.c., more elevated doses relative to AN81
  duration of analgesia: activity drops rapidly over time; also recorded: lost almost all activity over a time period of 2 hours

## H-Dmt-D-Arg-Aba-Gly-NH2 [AN81]
Male C57Bl6 mice [2]; compared among the peptides of the study
  overall analgesic effect after systemic administration: strongest analgesic effect
Male C57Bl6 mice [2]; i.v., 0.1 mg/kg, 15 min and 120 min
  analgesic effect compared with morphine: significantly lower analgesic effect
Male C57Bl6 mice [2]; i.v., 0.1 mg/kg, 2 h, ± SEM of 6-10 mice, p < 0.05 vs morphine
  %MPE: 61.2 ± 6.45%
Male C57Bl6 mice [2]; [15]
  %MPE: 95 ± 2.89%
Male C57Bl6 mice [2]; i.v., 4 mg/kg, 30 min, 6-10 mice, p > 0.05 vs morphine
  %MPE: 100%
Male C57Bl6 mice [2]; i.v., 4, 1 and 0.5 mg/kg, all time points, p > 0.05
  analgesic effect compared with morphine: no difference in the analgesic effect
Male C57Bl6 mice [1]; 5 days repetitive administration
  tolerance compared to morphine: markedly lower
Male C57Bl6 mice [1]
  tolerance development after repetitive administration: leads to the development of tolerance; also recorded: partial preservation of analgesia observed after repetitive administration; also recorded: appeared to still induce the development of tolerance
Male C57Bl6 mice [1]; day 5, i.v., 4 mg/kg daily, last time point (120 min), p < 0.001
  %MPE: 15.83% ± 4.40
Male CD1 mice; abstract: very low doses (0.1 mg/kg)
  duration of antinociception: up to 7 hours
Male CD1 mice; s.c., 1 mg/kg, 7 h, ± SEM of 5-6 mice
  %MPE: 38.4 ± 7.8%
Male CD1 mice; s.c., 0.2, 0.5 and 1 mg/kg, 5-6 mice
  time of peak antinociception: 1 h
Male CD1 mice; s.c., 1, 0.5 and 0.2 mg/kg
  duration of analgesia: up to 7 hours
MOR [3]
  EC50: 0.00032 ± 4e-05 µM
DOR [4]
  EC50: 0.00042 ± 2e-05 µM
KOR; [^3H]U69,593, guinea pig brain membrane
  Ki: 0.118 ± 0.012 µM
MOR [5]
  Ki: 0.00015 ± 2e-05 µM
DOR [6]
  Ki: 0.0006 ± 7e-05 µM
MOR/DOR
  in vitro agonist profile: superagonist profile; also recorded: full MOR/DOR agonist with subnanomolar affinity and tissue bioactivity

## H-Dmt-D-Arg-Phe-Lys-NH2 [Dmt^1-DALDA]
[7]
  opioid analgesic potency: potent opioid analgesic

## H-Dmt-NMe-D-Ala-Aba-Gly-NH2 [BVD03]
MOR [8]
  factor of superior MOR potency vs BVD02: 45
MOR [9]
  factor of superior MOR binding vs BVD02: 4
DOR [10]
  fold increase in DOR affinity vs BVD02: 26 fold
Male C57Bl6 mice [2]; i.v., 0.25 mg/kg (similar at 4 and 0.5 mg/kg), 15 min
  %MPE: 35-40%
Male C57Bl6 mice [2]; i.v., 0.25 mg/kg, 2 h, maximum level, ± SEM of 6-10 mice
  %MPE: 57.48 ± 17.57%
Male C57Bl6 mice [2]; [16]
  %MPE: 88.41 ± 7.15%
Male C57Bl6 mice [2]; i.v., 0.5 mg/kg, 120 min, ± SEM of 6-10 mice, p > 0.05 vs morphine
  %MPE: 84.29 ± 6.46%
Male C57Bl6 mice [2]; i.v., 1 mg/kg, 60 min, ± SEM of 6-10 mice, p > 0.05 vs morphine
  %MPE: 89.21 ± 5.22%
Male C57Bl6 mice [2]; i.v., 1 mg/kg, 120 min, ± SEM of 6-10 mice, p > 0.05 vs morphine
  %MPE: 86.69 ± 5.52%
Male C57Bl6 mice [2]; i.v., 4 mg/kg, 60 min, ± SEM of 6-10 mice, p > 0.05 vs morphine
  %MPE: 68.78 ± 7.18%
Male C57Bl6 mice [2]; i.v., 4 mg/kg, 120 min, ± SEM, vs morphine: BVD03 p < 0.05, SBCHM01 p > 0.05
  %MPE: 50.06 ± 6.84%
Male C57Bl6 mice [2]; i.v., all doses except 0.25 mg/kg
  antinociception after 2 hours: drop in antinociception after 2 hours
Male C57Bl6 mice [1]
  tolerance development after repetitive administration: leads to the development of tolerance
Male C57Bl6 mice [1]; day 1, i.v., 4 mg/kg, 1 h
  %MPE: 68.78 ± 7.18%
Male C57Bl6 mice [1]; day 1, i.v., 4 mg/kg, 7-10 animals
  difference from morphine on first day: significant differences (**p < 0.01) when compared to morphine
Male C57Bl6 mice [1]; day 5, i.v., 4 mg/kg daily, 60 min
  %MPE: 18.14 ± 6.84%
MOR [11]
  EC50: 0.00174 ± 0.00034 nM
DOR [12]
  EC50: 0.016 ± 0.009 nM
MOR [13]
  Ki: 0.015 ± 0.002 µM
DOR [14]
  Ki: 0.005 ± 0.003 µM
KOR; [17]
  Ki: > 1000 µM

## H-[Dmt][dNMeA]F[Sar]-NH2 [BVD02, opioid tetrapeptide, "ring opened" analogue]
Male C57Bl6 mice [2]; [16]
  %MPE: 56.77 ± 13.57%
Male C57Bl6 mice [2]; [15]
  %MPE: 74.77 ± 13.63%
Male C57Bl6 mice [2]; i.v., 5 mg/kg, 15 min post-injection, 6-10 mice, unchanged within the next hour
  %MPE: 100%
Male C57Bl6 mice [2]; i.v., 5 mg/kg, 2 h, ± SEM of 6-10 mice, p > 0.05
  %MPE: 96 ± 4%
Male C57Bl6 mice [2]; i.v., 1 and 0.5 mg/kg, 120 min, p < 0.001 vs morphine
  antinociceptive activity at 120 min compared to morphine: dramatic reduction of activity
MOR [11]
  EC50: 0.079 ± 0.0065 nM
DOR [12]
  EC50: 4400 ± 500 nM
MOR [13]
  Ki: 0.06 ± 0.003 µM
DOR [14]
  Ki: 0.13 ± 0.005 µM
KOR; [17]
  Ki: > 1000 µM
